These results are taken from the supplement of paper PMC10307832.

Common to all, as to test: relative viability (nuclei count vs DMSO), 5 days (fraction); higher = more cells survive
Compound in the assay “R406 + Olaparib”: COc1cc(Nc2ncc(F)c(Nc3ccc4c(n3)NC(=O)C(C)(C)O4)n2)cc(OC)c1OC [R406] + O=C(c1cc(Cc2n[nH]c(=O)c3ccccc23)ccc1F)N1CCN(C(=O)C2CC2)CC1 [Olaparib] (partner 8 µM)
In a few lines: (§1)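 Lung cancer cell lines were pin-tool dosed in 1536-well plates on the day after seeding, with either a lone drug or a fixed anchor-drug dose plus five library-drug doses (not always all listed) in √10 steps. Nuclei were counted on 4× images after 5 days. Relative viability is the ratio of treated-well to vehicle-well nuclei counts, with each value a median of duplicate plates.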

Compound in the assay “Daporinad + Trametinib”: O=C(/C=C/c1cccnc1)NCCCCC1CCN(C(=O)c2ccccc2)CC1 [Daporinad] + CC(=O)Nc1cccc(-n2c(=O)n(C3CC3)c(=O)c3c(Nc4ccc(I)cc4F)n(C)c(=O)c(C)c32)c1 [Trametinib] (partner 0.02 µM)
In a few lines:
as §1

Compound in the assay “Daporinad + OSI-027”: O=C(/C=C/c1cccnc1)NCCCCC1CCN(C(=O)c2ccccc2)CC1 [Daporinad] + COc1cccc2cc(-c3nc([C@H]4CC[C@H](C(=O)O)CC4)n4ncnc(N)c34)[nH]c12 [OSI-027] (partner 0.5 µM)
In a few lines:
as §1

Compound in the assay “Daporinad + Crizotinib”: O=C(/C=C/c1cccnc1)NCCCCC1CCN(C(=O)c2ccccc2)CC1 [Daporinad] + C[C@@H](Oc1cc(-c2cnn(C3CCNCC3)c2)cnc1N)c1c(Cl)ccc(F)c1Cl [Crizotinib] (partner 1 µM)
The method, boiled down: as §1

Take NCI-H2347: the relative viability is 0.556 with R406 + Olaparib (first compound 0.08 µM); 0.583 with R406 + Olaparib (first compound 0.253 µM); 0.604 in the assay with R406 + Olaparib (first compound 0.8 µM); 0.531 in the assay with R406 + Olaparib (first compound 2.53 µM); 0.47 with R406 + Olaparib (first compound 8 µM); 0.301 with Daporinad + Trametinib (first compound 0.0005 µM). Moreover, the relative viability in the assay with Daporinad + Trametinib (first compound 0.001581 µM) was determined as 0.288; with Daporinad + Trametinib (first compound 0.005 µM), 0.281; with Daporinad + Trametinib (first compound 0.01581 µM) it was 0.329; with Daporinad + OSI-027 (first compound 0.0005 µM), 0.463; in the assay with Daporinad + OSI-027 (first compound 0.001581 µM), 0.377; with Daporinad + OSI-027 (first compound 0.005 µM), 0.335. For the same cell line, the relative viability with Daporinad + OSI-027 (first compound 0.01581 µM) is 0.489; with Daporinad + Crizotinib (first compound 0.0005 µM), 0.841; with Daporinad + Crizotinib (first compound 0.001581 µM), 0.892; with Daporinad + Crizotinib (first compound 0.005 µM), 0.826; in the assay with Daporinad + Crizotinib (first compound 0.01581 µM), 0.775.
Regarding NCI-H2405, the relative viability in the assay with R406 + Olaparib (first compound 0.08 µM) was 0.857; in the assay with R406 + Olaparib (first compound 0.253 µM) it was 0.879; with R406 + Olaparib (first compound 0.8 µM), 0.879; with R406 + Olaparib (first compound 2.53 µM), 0.748; in the assay with R406 + Olaparib (first compound 8 µM), 0.306; in the assay with Daporinad + Trametinib (first compound 0.0005 µM), 0.69. The relative viability amounted to 0.664 in the assay with Daporinad + Trametinib (first compound 0.001581 µM); 0.647 in the assay with Daporinad + Trametinib (first compound 0.005 µM); 0.509 in the assay with Daporinad + Trametinib (first compound 0.01581 µM); 0.698 with Daporinad + OSI-027 (first compound 0.0005 µM); 0.645 with Daporinad + OSI-027 (first compound 0.001581 µM); 0.724 with Daporinad + OSI-027 (first compound 0.005 µM). Further, the relative viability with Daporinad + OSI-027 (first compound 0.01581 µM) was 0.626; in the assay with Daporinad + Crizotinib (first compound 0.0005 µM), 0.731; with Daporinad + Crizotinib (first compound 0.001581 µM) it was 0.92; in the assay with Daporinad + Crizotinib (first compound 0.005 µM), 0.918; in the assay with Daporinad + Crizotinib (first compound 0.01581 µM) it was 0.511.
NCI-H3122: the relative viability in the assay with R406 + Olaparib (first compound 0.08 µM) was 0.637; with R406 + Olaparib (first compound 0.253 µM), 0.739; with R406 + Olaparib (first compound 0.8 µM), 0.69; with R406 + Olaparib (first compound 2.53 µM), 0.566; with R406 + Olaparib (first compound 8 µM), 0.625; in the assay with Daporinad + Trametinib (first compound 0.0005 µM) it was 0.165. The relative viability in the assay with Daporinad + Trametinib (first compound 0.001581 µM) worked out at 0.227; with Daporinad + Trametinib (first compound 0.005 µM), 0.213; in the assay with Daporinad + Trametinib (first compound 0.01581 µM), 0.217; with Daporinad + OSI-027 (first compound 0.0005 µM), 0.851; with Daporinad + OSI-027 (first compound 0.001581 µM), 1.18; with Daporinad + OSI-027 (first compound 0.005 µM), 0.98. Further, the relative viability with Daporinad + OSI-027 (first compound 0.01581 µM) came out at 0.845; in the assay with Daporinad + Crizotinib (first compound 0.0005 µM), 0.237; with Daporinad + Crizotinib (first compound 0.001581 µM) it was 0.29; with Daporinad + Crizotinib (first compound 0.005 µM), 0.261; with Daporinad + Crizotinib (first compound 0.01581 µM), 0.238.
In the case of PC-3 [JPC-3], the relative viability with R406 + Olaparib (first compound 0.08 µM) was determined as 1.15; in the assay with R406 + Olaparib (first compound 0.253 µM), 1.3; with R406 + Olaparib (first compound 0.8 µM) it was 1.13; with R406 + Olaparib (first compound 2.53 µM) it was 0.838; with R406 + Olaparib (first compound 8 µM) it was 0.452; with Daporinad + Trametinib (first compound 0.0005 µM) it was 0.667. The relative viability with Daporinad + Trametinib (first compound 0.001581 µM) is 0.714; in the assay with Daporinad + Trametinib (first compound 0.005 µM) it was 0.758; in the assay with Daporinad + Trametinib (first compound 0.01581 µM), 0.842; with Daporinad + OSI-027 (first compound 0.0005 µM) it was 0.802; with Daporinad + OSI-027 (first compound 0.001581 µM), 0.707; in the assay with Daporinad + OSI-027 (first compound 0.005 µM) it was 0.874. Also, the relative viability in the assay with Daporinad + OSI-027 (first compound 0.01581 µM) turned out to be 0.823; in the assay with Daporinad + Crizotinib (first compound 0.0005 µM), 1; in the assay with Daporinad + Crizotinib (first compound 0.001581 µM) it was 1.02; with Daporinad + Crizotinib (first compound 0.005 µM) it was 1.11; in the assay with Daporinad + Crizotinib (first compound 0.01581 µM) it was 1.01.
